This note sets out measurements from US9428507B2, “Compounds for the treatment of malaria” (The Broad Institute, Inc., priority 2013, dated 2016).

This test has as its system Dd2 strain of P. falciparum. Kind of test: Activity against the Dd2 strain of P. falciparum (SYBR Green I, 72-h incubation). The format is cell-based. Conditions: Plasmodium falciparum, DD2, 72 h, read-out: EC^50 Dd2. As for the experimental part:
The Dd2 strain of P. falciparum was cultured in complete medium (RPMI with L-glutamine, 4.3% heat-inactivated O-positive human serum, 2.08 mg/ml albumax, 0.013 mg/ml hypoxanthine, 1.17 mg/ml glucose, 0.18% NaHCO3, 0.031 M Hepes, 2.60 mM NaOH, and 0.043 mg/ml gentamicin) until the parasitemia reached 3-8%. Parasitemia was determined by checking at least 500 red blood cells from a Giemsa-stained blood smear. The Dd2 cultures along with tested O-positive red blood cells are centrifuged at room temperature at 2,000 rpm for 5 min using an Eppendorf centrifuge 581 OR with an A-4-81 rotor. The medium was aspirated off. For the compound screening, a parasite dilution at a 1% parasitemia and 1.0% hematocrit was created with screening medium (RPMI with L-glutamine, 4.16 mg/ml albumax II, 0.013 mg/ml hypoxanthine, 1.73 mg/ml glucose, 0.18% NaHCO3, 0.031M Hepes, 2.60 mM NaOH, and 0.043 mg/ml gentamicin). The suspension was gassed with 93% nitrogen, 4% carbon dioxide, and 3% oxygen and placed at 37° C. until needed. Using a liquid dispenser, 20 μl of screening medium was dispensed into 384-well, black, clear-bottom plates. With a PinTool, 100 nl of compounds dissolved in DMSO was transferred into the assay plates along with control compound (mefloquine). Next, 30 μl of the parasite suspension in screening medium was then dispensed into the assay plates such that the final parasitemia was 1%, and the final hematocrit was 1.0%. Final concentration of DMSO was 0.125%. Mefloquine at a final concentration of 20 μM and DMSO at a final concentration of 0.125% were used within the assay plates to serve as background and baseline controls, respectively. The assay plates were transferred to incubators (93% nitrogen, 4% carbon dioxide, and 3% oxygen during the 72-h incubation at 37° C.). Ten microliters of detection reagent consisting of 1 OX SYBR Green I (Invitrogen; supplied in 10,000× concentration) in lysis buffer (20 mM Tris-HCl, 5 mM EDTA, 0.16% Saponin wt/vol, 1.6% Triton X vol/vol) was dispensed into the assay plates. For optimal staining, the assay plates were left at room temperature for 24 h in the dark. The assay plates were read by using an Envision (PerkinElmer) reader, with 505 dichroic mirrors with 485-nm excitation and 530-nm emission settings, and the plate reads were from the bottom.
Consider `COc1ccc2c3c([nH]c2c1)[C@H](C)N(C(C)=O)CC31CCN(C(=O)OC(C)(C)C)CC1` [Compound 34, (S)-tert-butyl 2′-acetyl-7′-methoxy-1′-methyl-1′,2′,3′,9′-tetrahydrospiro[piperidine-4,4′-pyrido[3,4-b]indole]-1-carboxylate], for which the EC50 is 3770 nM.

Take `COc1ccc2c3c([nH]c2c1)[C@H](CO)N(C(C)=O)CC31CCN(C(=O)Nc2ccccc2)CC1` [Compound 35, (R)-2′-acetyl-1′-(hydroxymethyl)-7′-methoxy-N-phenyl-1′,2′,3′,9′-tetrahydrospiro[piperidine-4,4′-pyrido[3,4-b]indole]-1-carboxamide]: the EC50 fell in the range of 175 to 410 nM.

For `CCCC(=O)N1CC2(CCN(C(=O)Nc3ccccc3F)CC2)c2c([nH]c3cc(OC)ccc23)[C@@H]1CO` [Compound 36, (R)-2′-butyryl-N-(2-fluorophenyl)-1′-(hydroxymethyl)-7′-methoxy-1′,2′,3′,9′-tetrahydrospiro[piperidine-4,4′-pyrido[3,4-b]indole]-1-carboxamide], the EC50 came to 423 nM.

For the compound `COc1ccc2c3c([nH]c2c1)[C@H](CO)N(C(C)=O)CC31CCN(C(=O)Nc2cccc(F)c2)CC1` [Compound 37, (R)-2′-acetyl-N-(3-fluorophenyl)-1′-(hydroxymethyl)-7′-methoxy-1′,2′,3′,9′-tetrahydrospiro[piperidine-4,4′-pyrido[3,4-b]indole]-1-carboxamide], the EC50 came out at 577 nM.

`COc1ccc2c3c([nH]c2c1)[C@H](CO[Si](C)(C)C(C)(C)C)N(C(C)=O)CC31CCN(Cc2ccccc2F)CC1` [Compound 38, (R)-1-(1′-(((tert-butyldimethylsilyl)oxy)methyl)-1-(2-fluorobenzyl)-7′-methoxyspiro[piperidine-4,4′-pyrido[3,4-b]indol]-2′(1′H,3′H,9′H)-yl)ethanone]: the EC50 is 809 nM.

With `COc1ccc2c3c([nH]c2c1)[C@H](CO)N(C(C)=O)CC31CCN(C(=O)Cc2ccccc2F)CC1` [Compound 39], the EC50 came to 752 nM.

With `COc1ccc2c3c([nH]c2c1)[C@H](CO[Si](C)(C)C(C)(C)C)NCC31CCN(C(=O)Nc2ccccc2F)CC1` [Compound 40, (R)-1′-(((tert-butyldimethylsilyl)oxy)methyl)-N-(2-fluorophenyl)-7′-methoxy-1′,2′,3′,9′-tetrahydrospiro[piperidine-4,4′-pyrido[3,4-b]indole]-1-carboxamide], the EC50 worked out at 1220 nM.

For `COc1ccc2c3c([nH]c2c1)[C@H](CO)N(C(C)=O)CC31CCN(C(=O)c2ccccc2F)CC1` [Compound 41, (R)-1-(1-(2-fluorobenzoyl)-1′-(hydroxymethyl)-7′-methoxyspiro[piperidine-4,4′-pyrido[3,4-b]indol]-2′(1′H,3′H,9′H)-yl)ethanone], the EC50 is 17500 nM.

As to `COc1ccc2c3c([nH]c2c1)[C@H](CO)N(CCc1ccccc1)CC31CCN(C(=O)Nc2ccccc2F)CC1` [Compound 42, (R)-N-(2-fluorophenyl)-1′-(hydroxymethyl)-7′-methoxy-2′-phenethyl-1′,2′,3′,9′-tetrahydrospiro[piperidine-4,4′-pyrido[3,4-b]indole]-1-carboxamide], the EC50 was 1750 to 1900 nM.

With `COc1ccc2c3c([nH]c2c1)[C@H](CO)N(C(C)=O)CC31CCN(C(=O)NC2CCCCC2)CC1` [Compound 43, (R)-2′-acetyl-N-cyclohexy1-1′-(hydroxymethyl)-7′-methoxy-1′,2′,3′,9′-tetrahydrospiro[piperidine-4,4′-pyrido[3,4-b]indole]-1-carboxamide], the EC50 is 3370 to 5220 nM.

Turning to `COc1ccc2c3c([nH]c2c1)[C@H](CO)N(C(C)=O)CC31CCN(S(=O)(=O)Cc2ccccc2F)CC1` [Compound 44, (R)-1-(1-((2-fluorobenzyl)sulfonyl)-1′-(hydroxymethyl)-7′-methoxyspiro[piperidine-4,4′-pyrido[3,4-b]indol]-2′(1′H,3′H,9′H)-yl)ethanone], the EC50 was 1600 to 3280 nM.

Turning to `COc1ccc2c3c([nH]c2c1)[C@H](CO)N(C(C)=O)CC31CCN(C(=O)Nc2cccc(F)c2F)CC1` [Compound 45, (R)-2′-acetyl-N-(2,3-difluorophenyl)-1′-(hydroxymethyl)-7′-methoxy-1′,2′,3′,9′-tetrahydrospiro[piperidine-4,4′-pyrido[3,4-b]indole]-1-carboxamide], the EC50 was in the range of 44 to 131 nM.

Take `COc1ccc2c3c([nH]c2c1)[C@H](CN1CCOCC1)N(C(C)=O)CC31CCN(C(=O)OC(C)(C)C)CC1` [Compound 46, (S)-tert-butyl 2′-acetyl-7′-methoxy-1′-(morpholinomethyl)-1′,2′,3′,9′-tetrahydrospiro[piperidine-4,4′-pyrido[3,4-b]indole]-1-carboxylate]: the EC50 is 2430 to 6330 nM.

With `COc1ccc2c3c([nH]c2c1)[C@@H]1COCC(=O)N1CC31CCN(C(=O)Nc2ccccc2F)CC1` [Compound 47, (R)-N-(2-fluorophenyl)-10-methoxy-4-oxo-1,3,4,6,12,12b-hexahydrospiro[[1,4]oxazino[4′,3′:1 ,2]pyrido[3,4-b]indole-7,4′-piperidine]-1′-carboxamide], the EC50 was in the range of 2230 to 3230 nM.

Regarding `COc1ccc2c3c([nH]c2c1)[C@H](C)N(C(C)=O)CC31CCN(C(=O)Nc2ccccc2F)CC1` [Compound 48, (S)-2-acetyl-N-(2-fluorophenyl)-7′-methoxy-1'-methyl-1′,2′,3′,9′-tetrahydrospiro[piperidine-4,4′-pyrido[3,4-b]indole]-1-carboxamide], the EC50 lay in the range of 214 to 236 nM.

As to `CCCN1CC2(CCN(C(=O)Nc3ccccc3F)CC2)c2c([nH]c3cc(OC)ccc23)[C@@H]1CO` [Compound 49, (R)-N-(2-fluorophenyl)-1′-(hydroxymethyl)-7′-methoxy-2′-propyl-1′,2′,3′,9′-tetrahydrospiro[piperidine-4,4′-pyrido[3,4-b]indole]-1-carboxamide], the EC50 lay within 2390 to 2920 nM.

Regarding `COc1ccc2c3c([nH]c2c1)[C@H](CO)N(C(=O)c1ccccc1)CC31CCN(C(=O)Nc2ccccc2F)CC1` [Compound 50, (R)-2′-benzoyl-N-(2-fluorophenyl)-1′-(hydroxymethyl)-7′-methoxy-1′,2′,3′,9′-tetrahydrospiro[piperidine-4,4′-pyrido[3,4-b]indole]-1-carboxamide], the EC50 is 1240 to 2250 nM.

With `COc1ccc2c3c([nH]c2c1)[C@H](CO)N(C(C)=O)CC31CCN(C(=O)Nc2c(F)cccc2F)CC1` [Compound 51, (R)-2′-acetyl-N-(2,6-difluorophenyl)-1′-(hydroxymethyl)-7′-methoxy-1′,2′,3′,9′-tetrahydrospiro[piperidine-4,4′-pyrido[3,4-b]indole]-1-carboxamide], the EC50 was 177 to 235 nM.

Consider `COc1ccc2c3c([nH]c2c1)[C@H](CO)N(C(C)=O)CC31CCN(C(=O)Nc2cccnc2)CC1` [Compound 52, (R)-2′-acetyl-1′-(hydroxymethyl)-7′-methoxy-N-(pyridin-3-yl)-1′,2′,3′,9′-tetrahydrospiro[piperidine-4,4′-pyrido[3,4-b]indole]-1-carboxamide], for which the EC50 lay within 1450 to 1980 nM.

Take `COc1ccc2c3c([nH]c2c1)[C@H](CO)N(S(C)(=O)=O)CC31CCN(C(=O)Nc2ccccc2F)CC1` [Compound 53, (R)-N-(2-fluorophenyl)-1′-(hydroxymethyl)-7′-methoxy-2′-(methylsulfonyl)-1′,2′,3′,9′-tetrahydrospiro[piperidine-4,4′-pyrido[3,4-b]indole]-1-carboxamide]: the EC50 was 37 to 118 nM.

Turning to `COc1ccc2c3c([nH]c2c1)[C@H](CO)N(C(C)=O)CC31CCN(C(=O)Nc2ccc(F)cc2F)CC1` [Compound 54, (R)-2′-acetyl-N-(2,4-difluorophenyl)-1′-(hydroxymethyl)-7′-methoxy-1′,2′,3′,9′-tetrahydrospiro[piperidine-4,4′-pyrido[3,4-b]indole]-1-carboxamide], the EC50 fell in the range of 353 to 551 nM.

With `COc1ccc2c3c([nH]c2c1)[C@H](CO)N(C(C)=O)CC31CCN(C(=O)Nc2cc(F)ccc2F)CC1` [Compound 55, (R)-2′-acetyl-N-(2,5-difluorophenyl)-1′-(hydroxymethyl)-7′-methoxy-1′,2′,3′,9′-tetrahydrospiro [piperidine-4,4′-pyrido[3,4-b]indole]-1-carboxamide], the EC50 was 321 to 719 nM.

In the case of `CCN1CC2(CCN(C(=O)OC(C)(C)C)CC2)c2c([nH]c3cc(OC)ccc23)[C@@H]1CO[Si](C)(C)C(C)(C)C` [Compound 56, (R)-tert-butyl 1′-(((tert-butyldimethylsilyl)oxy)methyl)-2′-ethyl-7′-methoxy-1′,2′,3′,9′-tetrahydrospiro [piperidine-4,4′-pyrido[3,4-b]indole]-1-carboxylate], the EC50 was in the range of 1040 to 8770 nM.
